Data set [1] is described as follows: Blood pharmacokinetics after oral dosing (fluorescence HPLC, noncompartmental WinNonlin model). To be noted: for AUC: read-out: AUCτ of metabolite; for MRT: read-out: MRT of metabolite (converted); for half-life: read-out: t1/2 of metabolite (converted). In kind it is in vivo, human. On the procedure:
Study drugs were administered in the GCRC on an empty stomach between 8 and 9 AM the morning after admission (after fasting for ≥ 10 h).

Data set [2] has as its system CQ-resistant P. falciparum. The note with it: cited from earlier work.
A short description of data set [3]: Urinary excretion and renal clearance (24-hour urine collections, days 1-3). The note with it: days 1-3; AQ-72/AQ-13 and MDCQ/CQ.
The mark [4] stands for this setting: human, whole blood, oral, 1750 mg, after 1,750 mg AQ-13 over 3 d, median (range).
Where [5] appears, read: human, whole blood, oral, after 700 mg AQ-13, median (range).
Where [6] appears, read: human, whole blood, after 600 mg oral dose of parent drug, median (range).

Molecules are shown by their SMILES. Read-outs that look alike come from different tables or passages of the source.

Regarding `CCNCCCNc1ccnc2cc(Cl)ccc12` [AQ-72], the “time after drug administration at which metabolite/parent ratio reached 1.0” value in data set [1] (600 mg AQ-13, AQ-72/AQ-13 ratio) was in the range of 3 to 6 days. Further, the “metabolite/parent ratio in blood at the Cmax of the parent drug” value in data set [1] (600 mg dose, AQ-72/AQ-13 (mean) or MDCQ/CQ) stood at 0.37. The “time to appearance of metabolite in the blood” value in data set [1] (after oral 600 or 700 mg AQ-13 or 600 mg CQ) was no more than 1 h. In addition, the AUC stood at 262 µM·h in data set [1] (human, whole blood, oral, 700 mg, after 700 mg AQ-13, median (range)); 440 µM·h in data set [1] (setting [4]); 211 µM·h in data set [1] (human, whole blood, po, 600 mg, after 600 mg oral dose of parent drug (CQ or AQ-13), whole blood, median (range)). Also, the MRT was 17.4 days in data set [1] (setting [4]), 18.6 days in data set [1] (setting [5]) and 16.6 days in data set [1] (setting [6]). In addition, the results for the half-life in data set [1] (setting [4]), in data set [1] (setting [5]) and in data set [1] (setting [6]) were 10.5 days, 12.3 days and 11.1 days, respectively. For the same molecule, in data set [1] (human, whole blood, oral, after 600 mg AQ-13, median, read-out: Tmax of metabolite), the Tmax amounted to 0.625 days. Also, the Cmax in data set [1] (human, whole blood, after 600 mg oral dose of parent drug, median, read-out: Cmax of metabolite) amounted to 590 nM. Moreover, the “activity of major metabolite against CQ-resistant parasites” value in data set [2] is given as “not active against CQ-resistant parasites”. In addition, the “mono-dealkylated metabolite/parent ratio in urine” value in data set [3] was 23.6%.
